Reference: patent US5834431A, “Des-Arg^9 -BK antagonists” (Cortech, Inc., priority 1995, dated 1998)
Square brackets hold non-standard residues; d marks the D form. Ends that are not written are not given here. Peptide text beside a SMILES is read from it. Oic = O=C(O)[C@@H]1C[C@@H]2CCCC[C@@H]2N1; dIgl = N[C@@H](C(=O)O)C1Cc2ccccc2C1; Gly(cPent) = N[C@H](C(=O)O)C1CCCC1; Igl = N[C@H](C(=O)O)C1Cc2ccccc2C1; Hyp = O=C(O)[C@@H]1C[C@@H](O)CN1; dTic = O=C(O)[C@H]1Cc2ccccc2CN1

Key:
B2 receptor [1] = molecular target: T1, B2 receptor (Homo sapiens, UniProt P30411); assay: Human B2 binding, human BK2 clone membranes, 3H-Bradykinin; settings: 0.3 nM 3H-Bradykinin, i.a. = inactive, read-out: Human Binding - pIC50 B2 (converted)
T1 construct: expressed in transfected cells
T1 sequence (P30411 1-391): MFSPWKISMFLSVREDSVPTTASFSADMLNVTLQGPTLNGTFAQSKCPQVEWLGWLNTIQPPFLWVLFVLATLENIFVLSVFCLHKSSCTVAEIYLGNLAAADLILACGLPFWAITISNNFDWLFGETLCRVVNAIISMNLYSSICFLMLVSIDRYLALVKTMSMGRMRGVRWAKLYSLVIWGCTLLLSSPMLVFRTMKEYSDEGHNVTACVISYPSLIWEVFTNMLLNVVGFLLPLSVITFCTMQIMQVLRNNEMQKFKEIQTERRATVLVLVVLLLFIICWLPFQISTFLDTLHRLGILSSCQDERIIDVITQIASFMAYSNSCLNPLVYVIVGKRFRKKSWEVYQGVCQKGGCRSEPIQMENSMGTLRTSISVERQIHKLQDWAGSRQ
Protocol: (§1) Human lung fibroblasts IMR-90 cells were obtained from ATCC and propagated in DMEM media in […] roller bottles until confluent. Three hours prior to harvesting, the cells were treated with Interleukin lb (200 pg/ml). Human BK2 clones were propagated in F12 media until confluent. Preparation of membranes for binding assays was carried out by scraping cells from roller bottles in ice cold PBS and centrifuging at 1000 ×g, at 4° C. for 15 minutes. The supernatant was discarded and pellet resuspended in Buffer A consisting of 25 mM TES(pH 6.8) with 2 uM 1,10-Phenanthroline, and centrifuged at 27,000 ×g for 15 min. this was then repeated. The final pellet was resuspended in Buffer B (Buffer A with 2 uM Captopril, 140 ug/Ml Bacitracin, 0.1%BSA), and stored in 1 ml aliquots, frozen at -20° C. until needed.
(§2) Binding assays were performed by incubating human clone membranes with 0.3 nM ^3 H-Bradykinin or IMR-90 membranes with 0.5 nM ^3 H-des-Arg^9 -Kallidin in the presence of the peptides in assay buffer (Buffer B with 1 mM Dithiotreitol), at room temperature, for 45 minutes. All test compound dilutions were in triplicate. Assays were harvested by quick filtration in a Tomtec Harvester 96, with ice cold wash buffer consisting of 10 mM Tris/HCl, pH 7.5, 100 mM NaCl, 0.02%BSA, onto Wallec printed glassfiber Filtermat "B", which had been pre-soaked with 0.1% PEI and previously air-dried. Filtermats were counted in 9.5 mls Wallec Beta-Plate Scint, in Wallec 1450 MicroBeta Counter.

[2] = Stability in rat kidney brush border microvilli; format: in vitro ADME
Protocol: Kidney membranes were prepared as indicated in the literature (Booth et al., Biochemical Journal, 142: 575 (1974)). Rat kidneys were obtained after sacrifice and rinsed in several volumes of a 2 mM tris, 10 mM mannitol buffer, pH 7.1. Cortical material was carefully removed and homogenized in ten volumes of the buffer. The homogenate was spun in a IEC Centra-8 refrigerated centrifuge. (4° C., 200×g). The supernatant was made 10 mM with respect to MgCl2. The supernatant material was subjected to further centrifugation as indicated: [drawing 2] Pellet resuspended in tris-mannitol buffer. Protein concentration was determined by the method of Bradford (Anal. Biochem., 72:248-254 (1976)). Bradykinin antagonists were prepared at 1 mM concentration in a phosphate-buffered saline solution (phosphate saline, 2.6 mM KH2 PO4, 10.42 mM Na2 HPO4, 0.1454M NaCl, pH. 7.2). Aliquots (10 μl) of the compound were added to 90 μl of the tissue samples in Eppendorf tubes. Samples were incubated various time points at 37° C. At each time point protein was precipitated by addition of acetonitrile, acetonitrile made 0.1M HCl or 10% (v/v) trifluoroacetic acid in water (100 μl). Tubes were spun (14,000 rpm, 10 min) in an Eppendorf Model 5415C microcentrifuge. Samples were filtered and analyzed using reverse-phase HPLC (C18 column 4.6×150 mm) and a 13.5% to 90% acetonitrile gradient in 0.1% TFA. Compound half-life was determined by analysis of raw data using ENZFIT application software (Elsevier).

B1 receptor = molecular target: T2, B1 receptor (Homo sapiens, UniProt P46663); assay: Human B1 binding, IL-1b-treated IMR-90 membranes, 3H-des-Arg9-Kallidin; settings: 0.5 nM 3H-des-Arg9-Kallidin, pIC50 = -log of molar IC50
T2 construct: Human lung fibroblasts IMR-90 cells were obtained from ATCC and propagated in DMEM media; host or cells: IMR-90 human lung fibroblasts, treated with interleukin 1b three hours before harvest; membranes
T2 sequence (P46663 1-353): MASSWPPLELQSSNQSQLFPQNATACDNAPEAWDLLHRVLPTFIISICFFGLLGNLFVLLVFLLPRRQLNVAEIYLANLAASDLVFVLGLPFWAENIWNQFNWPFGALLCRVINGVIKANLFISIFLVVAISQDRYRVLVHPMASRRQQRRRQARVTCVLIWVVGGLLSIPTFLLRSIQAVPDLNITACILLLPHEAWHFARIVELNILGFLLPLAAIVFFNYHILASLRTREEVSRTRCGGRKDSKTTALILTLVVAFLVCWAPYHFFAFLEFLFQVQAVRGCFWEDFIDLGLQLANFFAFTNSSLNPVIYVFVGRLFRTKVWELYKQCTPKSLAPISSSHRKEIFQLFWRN
Protocol: as §1
as §2, with “air-dried.” for “air-dried. Filtermats were counted in 9.5 mls Wallec Beta-Plate Scint, in Wallec 1450 MicroBeta Counter.”

B2 receptor [3] = molecular target: T3, B2 receptor (Cavia porcellus, UniProt O70526); assay: GPI binding B2; settings: i.a. = inactive, read-out: GPI Binding - pIC50 B2 (converted)
T3 construct: from tissue
T3 sequence (O70526 1-372): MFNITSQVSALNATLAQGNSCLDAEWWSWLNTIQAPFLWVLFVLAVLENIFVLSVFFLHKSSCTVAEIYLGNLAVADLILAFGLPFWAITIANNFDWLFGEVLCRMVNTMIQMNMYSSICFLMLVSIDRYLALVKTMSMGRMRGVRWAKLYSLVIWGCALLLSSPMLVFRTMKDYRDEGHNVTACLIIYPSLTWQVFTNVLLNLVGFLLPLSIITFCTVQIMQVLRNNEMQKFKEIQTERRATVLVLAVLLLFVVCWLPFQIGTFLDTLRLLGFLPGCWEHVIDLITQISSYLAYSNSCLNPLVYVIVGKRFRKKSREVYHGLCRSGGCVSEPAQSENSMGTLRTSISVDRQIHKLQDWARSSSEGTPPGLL

[4] = Stability in rat lung membranes; format: in vitro ADME
Protocol: Rat or human lung (3 gm) was prepared as a modification of […] et al. (Biochemical Pharmacology 33: 3471 (1984)). Tissues were removed and placed in cold phosphate-saline (3×). Material was minced and homogenized in 20 volumes (w/v) of 0.5 mM tris HCl. 50 mM mannitol, pH 7.0. Calcium chloride was added to the homogenate to give a final concentration of 10 mM. The material was filtered through a guaze pad to remove loose connective tissue. Filtrate was spun in a Beckman centrifuge (3,000×g) for thirty minutes. The resultant supernatant fraction was spun in a Beckman L7-65 ultracentrifuge (43,000×g, 30 min) to spin down membranes. The centrifugation step was repeated on the membrane pellet fraction two additional times. The pellet was reconstituted in 4 ml of the tris mannitol buffer and stored at -70° C. Protein was determined by the method of Bradford. Bradykinin antagonists were prepared at 1 mM concentration in a phosphate-buffered saline solution (phosphate saline, 2.6 mM KH2 PO4, 10.42 mM Na2 HPO4, 0.1454M NaCl, pH. 7.2). Aliquots (10 μl) of the compound were added to 90 μl of the tissue samples in Eppendorf tubes. Samples were incubated various time points at 37° C. At each time point protein was precipitated by addition of acetonitrile, acetonitrile made 0.1M HCl or 10% (v/v) trifluoroacetic acid in water (100 μl). Tubes were spun (14,000 rpm, 10 min) in an Eppendorf Model 5415C microcentrifuge. Samples were filtered and analyzed using reverse-phase HPLC (C18 column 4.6×150 mm) and a 13.5% to 90% acetonitrile gradient in 0.1% TFA. Compound half-life was determined by analysis of raw data using ENZFIT application software (Elsevier).

[5] = molecular target: T4, BK1 (hypotensive response to desArg9BK) (Canis lupus familiaris, UniProt Q9BDQ5); assay: In vivo inhibition of hypotensive response to desArg9BK in anaesthetized dogs; design: species or system Mongrel dogs; settings: dog
T4 construct: Mongrel dogs of either sex, weight range 10-15 kg were used; from tissue; host or cells: whole anaesthetized mongrel dog (in vivo blood pressure)
T4 sequence (Q9BDQ5 1-350): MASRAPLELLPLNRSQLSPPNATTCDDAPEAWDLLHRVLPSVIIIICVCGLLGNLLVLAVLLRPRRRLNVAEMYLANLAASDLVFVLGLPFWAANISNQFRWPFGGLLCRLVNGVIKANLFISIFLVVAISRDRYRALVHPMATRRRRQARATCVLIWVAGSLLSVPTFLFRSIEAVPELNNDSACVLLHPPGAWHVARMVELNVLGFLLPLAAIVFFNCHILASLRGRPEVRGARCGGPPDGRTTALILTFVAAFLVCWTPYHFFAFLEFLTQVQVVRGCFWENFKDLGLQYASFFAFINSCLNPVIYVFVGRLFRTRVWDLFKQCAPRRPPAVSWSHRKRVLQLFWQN
Protocol: Mongrel dogs of either sex, weight range 10-15 kg were used. These were anaesthesized with pentobarbitone, 30 mg/kg i.v. and catheters placed in one femoral artery and both femoral veins for the recording of blood pressure and infusion and injection of compounds. […] After the end of the infusion of the highest dose of the antagonist compound, BK and des-Arg^9 -BK were injected at intervals for up to four hours.

[6] = tested on: type I diabetic hyperglycemia; settings: literature, Zuccollo et al. 1995; cited from earlier work
[7] = tested on: angiogenic response elicited by bradykinin; settings: literature, Hu et al. 1993; cited from earlier work

With N=C(N)NCCC[C@@H](N)C(=O)N[C@@H](CCCNC(=N)N)C(=O)N1CCC[C@H]1C(=O)N1C[C@H](O)C[C@H]1C(=O)NCC(=O)N[C@H](C(=O)N[C@@H](CO)C(=O)N1Cc2ccccc2C[C@@H]1C(=O)N[C@H](C(=O)O)C1CCCC1)C1CCCC1 [B9066, DArg-Arg-Pro-Hyp-Gly-Cpg-Ser-DTic-Cpg] (H-[dR]RP[Hyp]G[Gly(cPent)]S[dTic][Gly(cPent)]-OH) the IC50 (B2 receptor [1]) was 1260 nM, the Half-Life [2] was > 6 h and the IC50 (B1 receptor) was 0.501 nM. The IC50 (B2 receptor [3]) was 2510 nM and the Half-Life [4] was > 6 h.

In the case of N=C(N)NCCC[C@@H](N)C(=O)N[C@@H](CCCNC(=N)N)C(=O)N1CCC[C@H]1C(=O)N1C[C@H](O)C[C@H]1C(=O)NCC(=O)N[C@H](C(=O)N[C@@H](CO)C(=O)N[C@@H](C(=O)N1[C@H](C(=O)O)C[C@@H]2CCCC[C@@H]21)C1Cc2ccccc2C1)C1Cc2ccccc2C1 [B9812, DArg-Arg-Pro-Hyp-Gly-Igl-Ser-DIgl-Oic] (H-[dR]RP[Hyp]G[Igl]S[dIgl][Oic]-OH), the Half-Life [2] is reported as > 6 h, the “BK1 ED50” value ([5]; ED50 expressed in pmol) is reported as 10.7 pmol and the “Duration of Action (following 20 min of highest dose)” value ([5]; return of agonist response after end of infusion) is reported as “B1 still 100% blocked at 4.6 h”. For the same compound, the “Selectivity (BK, desArg9BK, ACh, NE, Sp, AII)” value ([5]; which agonist responses are blocked at the stated infusion dose) was “B1 only at 1.0” and the Half-Life [4] was > 6 h.

For CC(C)C[C@H](NC(=O)[C@@H]1CCCN1C(=O)[C@H](CO)NC(=O)[C@H](Cc1ccccc1)NC(=O)CNC(=O)[C@@H]1CCCN1C(=O)[C@@H]1CCCN1C(=O)[C@H](CCCN=C(N)N)NC(=O)[C@@H](N)CCCCN)C(=O)O [CP-0298, desArg9 Lys0 Leu8 BX, reference compound], the Half-Life [2] was 0.020 h, the “BK1 ED50” value ([5]; infusion, dose of antagonist to inhibit hypotensive response to desArg9BK by 50%) was 0.546 ± .16 µg/kg/min and the Half-Life [4] was 0.085 h.

In the case of “RPPGFSPFR [Bradykinin, Arg^1 -Pro^2 -Pro^3 -Gly^4 -Phe^5 -Ser^6 -Pro^7 -Phe^8 -Arg^9, reference compound]”, the Half-Life ([2]; Rat kidney Brush Border, 37° C.) is reported as 0.13 h and the Half-Life ([4]; Rat Lung Membranes, 37° C.) is reported as 0.13 h.

In the case of [Leu^8, des-Arg^9 ]-bradykinin, the “effect on type I diabetic hyperglycemia” value [6] is given as “cause a reduction in type I diabetic hyperglycemia” and the “effect on angiogenic response elicited by bradykinin” value [7] is given as “inhibit the angiogenic response elicited by bradykinin”.
